# Test results from PubChem BioAssay (NCI).
# Several values for one entry are separate records, joined by “and”; a condition that tells them apart may be missing. Equal values may be shown once.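 Growth conditions: 96-well plates. Treatment: test compound, 48 hours, 5 concentrations. Analysis: linear interpolation between bracketing concentrations; unreached endpoints set to highest concentration. GI50: concentration for 50% inhibition of growth. TGI: concentration producing complete growth inhibition.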
# Columns and labels:
# Experiment in all cases: growth of human tumour cells (NCI), 48 h
# A498 renal = test system: A498 renal
# T-47D breast = test system: T-47D breast
# SNB-75 CNS = test system: SNB-75 CNS
# HCC-2998 colon = test system: HCC-2998 colon
# HOP-62 NSCLC = test system: HOP-62 NSCLC
# EKVX NSCLC = test system: EKVX NSCLC
# RXF 393 renal = test system: RXF 393 renal
# DU-145 prostate = test system: DU-145 prostate
# K-562 leukemia = test system: K-562 leukemia
# SF-268 CNS = test system: SF-268 CNS
Compound,GI50 (A498 renal) [µM],TGI (A498 renal),GI50 (T-47D breast) [µM],TGI (T-47D breast),GI50 (SNB-75 CNS) [µM],TGI (SNB-75 CNS),GI50 (HCC-2998 colon) [µM],TGI (HCC-2998 colon) [µM],GI50 (HOP-62 NSCLC) [µM],TGI (HOP-62 NSCLC),GI50 (EKVX NSCLC) [µM],TGI (EKVX NSCLC),GI50 (RXF 393 renal) [µM],TGI (RXF 393 renal) [µM],GI50 (DU-145 prostate) [µM],TGI (DU-145 prostate),GI50 (K-562 leukemia) [µM],TGI (K-562 leukemia),GI50 (SF-268 CNS) [µM],TGI (SF-268 CNS)
CC(=O)c1ccc2c(c1)N(CCCN1CCN(CCO)CC1)c1ccccc1S2,1.55,3.91 µM,1.94,5.2 µM,1.53,3.51 µM,1.71,3.2,1.99,4.77 µM,4.83,21 µM,2.09,5.95,4.55,15.8 µM,2.52,> 23 µM,3.15,12.2 µM
CN(C)N1C(=O)SCC(c2ccccc2)(c2ccccc2)C1=O,,> 100 µM,,> 100 µM,,> 100 µM,,> 100,,> 100 µM,,> 100 µM,,> 100,,> 100 µM,,> 100 µM,,> 100 µM
C=C1C(=O)O[C@H]2[C@H]1CC/C(COC(=O)NCc1ccc(Cn3c(=O)sn(CCCCC)c3=O)cc1)=C\CC[C@@]1(C)O[C@@H]21,2.91,10.1 µM,1.75,4 µM,1.59,4.07 µM,3.55,11.1,9.53,22.6 µM,1.85,5.59 µM,,,1.68,3.04 µM,,,1.88,3.97 µM
Cn1c(=O)n(C)c2cc(CNCCNc3ccnc4cc(Cl)ccc34)ccc21,1.57,27 µM,28.3,86.5 µM,13.1,35.6 µM,20.2,52.9,39.4,> 100 µM,,,12.6,31.2,38.5,> 100 µM,6.99,39.4 µM,29.4,> 100 µM
C=CC(C)(C)n1cc(C2=C(O)C(=O)C(c3cn(C(C)(C)C=C)c4ccccc34)=C(O)C2=O)c2ccccc21,,34.5 µM,,23.1 µM,,7.77 µM,,9.8,,8.43 µM,,14 µM,,3.87,,18.9 µM,,> 100 µM,,8.15 µM
C/C(=C(/c1ccccc1)c1ccc(OCC(O)CNCCN2CCOCC2)cc1)c1ccccc1 (configuration not stated),1.52,10.1 µM,3.49,11.3 µM,2.68,15.6 µM,1.93,3.43,2.29,5.69 µM,7.15,20.6 µM,1.91,4.22,4.37,15.7 µM,1.75,4.26 µM,4,15.4 µM
CCCc1nc(Cl)nc(Cl)c1Cl,,7.53 µM,,4.49 µM,,6 µM,,4.57,,2.44 µM,,2.63 µM,,0.798,,9.93 µM,,0.118 µM,,4.17 µM
CCCC(=O)N[C@H]1CCc2cc(OC)c(OC)c(OC)c2-c2ccc(SC)c(=O)cc21,,0.39 µM,,> 100 µM,,15.6 µM,,> 4.64,,> 91.2 µM,,> 100 µM,,,,< 0.01 µM,,> 100 µM,,62.7 µM
CC(C)(C)[Si](C)(C)OC1[C@@H](CNC(N)=O)O[C@@H](n2cnc3c(NC(=O)Nc4ccccc4)ncnc32)[C@H]1O[Si](C)(C)C(C)(C)C (some centres not stated),1.56,8.04 µM,7.56,14.2 µM,3.73,10.9 µM,1.6,6.18,6.38,12.9 µM,1.94,8.02 µM,1.95,7.02,1.71,5.59 µM,1.06,2.13 µM,1.04,2.36 µM
ClCc1cccc(Cn2cnc3c(Cl)nc(Cl)nc32)c1,2.42,6.53 µM,1.97,4.5 µM,2.04,3.89 µM,1.61,3.15,2.29,4.38 µM,1.74,3.35 µM,0.76,2.1,1.59,2.98 µM,1.6,> 100 µM,2.5,6.64 µM
COc1ccc(C(=O)c2sc3nc(-c4ccccc4OC)ccc3c2N)cc1OC,3.38,> 100 µM,2.95,> 100 µM,4.34,23.4 µM,9.71,> 100,18.7,> 100 µM,,,3.42,70,27.9,> 100 µM,5.1,> 100 µM,11.9,> 100 µM
CCSc1ccc([C@@H]2[C@@H](O)C(=O)N2c2cc(OC)c(OC)c(OC)c2)cc1,< 0.01,0.829 µM,14.2,45.8 µM,< 0.011,65.1 µM,0.0489,17.4,< 0.0125,32.5 µM,0.0226,53 µM,< 0.01,52.3,0.0252,> 50.3 µM,< 0.01,> 69.9 µM,0.0504,51.7 µM
CCCCCCNCCCNc1c2cc(OC)ccc2nc2cccc([N+](=O)[O-])c12,0.227,3.6 µM and 0.462 µM,0.35,0.931 µM and 2.49 µM,0.183,0.865 µM and 0.42 µM,,0.0643,0.124,0.371 µM and 0.449 µM,1.35,0.427 µM and 3.32 µM,,0.111,0.162,0.338 µM and 1.36 µM,0.121,0.489 µM and 0.352 µM,0.261,0.418 µM and 1.01 µM
CCn1cc(/C=C2\Oc3cc(OCC#N)ccc3C2=O)c2cc(OC)ccc21,10.3,> 100 µM,0.961,> 100 µM,0.527,,1.86,> 100,0.622,> 46.6 µM,1.44,> 100 µM,0.152,0.614,0.44,> 62 µM,0.0888,> 100 µM,1.48,> 55.6 µM
O=[N+]([O-])c1cc([As](Br)c2ccc(O)c([N+](=O)[O-])c2)ccc1O,,3.74 µM,,0.557 µM,,3.62 µM,,2.72,,4.87 µM,,3.86 µM,,3.22,,4.59 µM,,> 23.2 µM,,5.59 µM
COc1ccc(-c2c(C#N)c(N)nc(N3CCOCC3)c2C#N)cc1,7.36,30.1 µM,0.828,6.14 µM,13.5,60.7 µM,13,31.6,14.8,70.4 µM,21.4,> 100 µM,16.9,47.2,27.3,> 100 µM,34.5,> 100 µM,32.3,> 100 µM
Clc1ccc(/C=C/c2ccc3ccccc3n2)cc1,0.306,> 100 µM,5.16,> 100 µM,2.63,> 67.1 µM,0.968,8.41,> 100,> 100 µM,2.79,> 100 µM,0.648,> 74.7,2.23,5.41 µM,0.439,> 100 µM,0.641,> 88.3 µM
COc1ccc2c(c1)C(=O)/C(=C/c1cccc(OCC(=O)Nc3nc(C)c(C)s3)c1)O2,1.75,10.7 µM,1.99,4.65 µM,0.0115,0.037 µM,1.53,3.54,0.0107,0.0238 µM,0.677,15.3 µM,0.0214,0.0418,0.121,0.67 µM,0.24,,0.0281,0.0743 µM
O=C1/C(=C\c2ccco2)Oc2ccccc21,,> 100 µM,,> 100 µM,,> 100 µM,,> 100,,> 100 µM,,> 100 µM,,> 100,,> 100 µM,,> 100 µM,,> 100 µM
c1ccc(-c2nc3n(c2-c2ccc4c(c2)OCO4)CCC3)nc1,5.76,20.6 µM,7.99,> 23.4 µM,6.42,> 25 µM,10.4,> 25,4.93,> 17.6 µM,5.2,> 25 µM,2.45,> 17.5,7.22,> 25 µM,5.49,> 25 µM,7.86,> 25 µM
CO[C@H]1/C=C/O[C@@]2(C)Oc3c(C)c(O)c4c(O)c(c(/C=N/N5CCN(C)CC5)c(O)c4c3C2=O)NC(=O)/C(C)=C\C=C\[C@H](C)[C@H](O)[C@@H](C)[C@@H](O)[C@@H](C)[C@H](OC(C)=O)[C@@H]1C,,> 100 µM,,> 100 µM,,,,> 100,,> 100 µM,,> 100 µM,,> 100,,> 100 µM,,> 100 µM,,
O=C(c1ccc2ccccc2c1)c1nc2cc(F)ccc2[n+]([O-])c1C(F)(F)F,43.7,> 100 µM,27.6,> 100 µM,17,35.9 µM,15.8,31.3,34.4,> 100 µM,18.2,38 µM,14.6,30.8,20.9,45.8 µM,2.8,15.4 µM,18.5,38.1 µM
CC(NC(=O)Cc1ccc(C(F)(F)P(=O)(OCc2ccc([N+](=O)[O-])o2)N(C)CCCCCl)cc1)c1ccc(OCC2CCCCC2)c(C(N)=O)c1 (configuration not stated),1.17,24 µM,4.33,15 µM,4.7,9.97 µM,3.25,9.11,4.08,12.1 µM,4.92,16.7 µM,4.36,9.97,6.2,16.7 µM,4.5,17.9 µM,4.8,15.5 µM
CCCN(CCC)c1ccc(C=O)c(Cl)c1,0.141,0.289 µM,0.375,5.1 µM,16.5,55.8 µM,19.4,> 100,13.3,64.9 µM,21.4,> 76.6 µM,14.2,33.6,48,> 100 µM,26.4,> 100 µM,33.9,> 91.5 µM
CCOC(=O)c1ccc(NC(=O)NC2=NCCS2)cc1,0.34,2.24 µM,4.13,> 100 µM,0.252,> 100 µM,3.91,> 76.7,1.75,> 100 µM,,,0.429,3.3,1.71,> 100 µM,10.5,> 100 µM,3.5,> 100 µM
COc1ccc(-c2cnnn2-c2nonc2-n2cccc2)cc1OC,2.95,23 µM,3.79,> 100 µM,4.19,39.2 µM,5.53,37.7,5.21,> 100 µM,,,2.98,40.2,7.95,> 100 µM,1.37,> 100 µM,8.06,> 100 µM
COc1ccc(/C=C2/C(=O)N(C(=O)c3ccccc3O)N=C2C)cc1,,0.0747 µM,,> 100 µM,,,,> 100,,,,> 100 µM,,1.23,,> 100 µM,,> 100 µM,,> 100 µM
COc1cc(OC)c2sc(-c3ccc(-n4cncc4-c4ccc(OC)c(OC)c4)cc3)nc2c1,2.15,> 100 µM,3.78,> 100 µM,7.21,46 µM,> 100,> 100,35.5,> 100 µM,,,3.55,> 100,27.9,> 100 µM,5.88,> 100 µM,9.96,> 100 µM
